From patent publication US20250051337A1 (priority 2021, published 2025)
Where two headings read alike, the source gives them in different places.

Assays:
STK3 = STK3 (Homo sapiens (Human), UniProt Q13188); assay: ADP-Glo kinase assay, STK3; assay type: biochemical
Procedure: (§1) The STK3 kinase assay was performed in 5 μL reaction buffer containing 50 ng recombinant human STK3 protein (full length, SignalChem #S24-10G; Richmond, Canada), 250 μg/mL myelin basic protein (Sigma-Aldrich #M1891; St. Louis, MO, USA), and 50 μM ATP (Sigma-Aldrich #A7699). The STK4 kinase assay was performed in 5 μL reaction buffer containing 50 ng recombinant human STK4 protein (full length, SignalChem #S25-10G), 300 μg/mL Axltide (SignalChem #A16-58), and 50 μM ATP. […] Three experiments were performed, each in triplicate.

STK4 = STK4 (Homo sapiens (Human), UniProt Q13043); assay: ADP-Glo kinase assay, STK4; assay type: biochemical
Procedure: as §1

[1] = ADP-Glo, 50 μM ATP, read-out: STK3 IC50
[2] = ADP-Glo, 50 μM ATP, read-out: STK4 IC50

Chain of STK3 (Q13188 whole entry): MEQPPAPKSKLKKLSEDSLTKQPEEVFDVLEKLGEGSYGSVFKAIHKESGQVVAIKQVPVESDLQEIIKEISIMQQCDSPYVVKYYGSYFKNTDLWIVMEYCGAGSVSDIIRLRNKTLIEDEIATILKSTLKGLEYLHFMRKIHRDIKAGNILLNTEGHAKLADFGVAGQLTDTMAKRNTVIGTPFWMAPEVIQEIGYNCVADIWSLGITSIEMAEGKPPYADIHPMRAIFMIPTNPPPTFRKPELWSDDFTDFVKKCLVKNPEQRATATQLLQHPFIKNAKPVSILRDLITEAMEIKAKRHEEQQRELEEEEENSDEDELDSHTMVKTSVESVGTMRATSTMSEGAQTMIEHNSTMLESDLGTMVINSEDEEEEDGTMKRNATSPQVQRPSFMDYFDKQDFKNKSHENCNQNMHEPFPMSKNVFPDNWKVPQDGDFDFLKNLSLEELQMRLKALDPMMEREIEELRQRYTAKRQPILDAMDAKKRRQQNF
Chain of STK4 (Q13043 whole entry): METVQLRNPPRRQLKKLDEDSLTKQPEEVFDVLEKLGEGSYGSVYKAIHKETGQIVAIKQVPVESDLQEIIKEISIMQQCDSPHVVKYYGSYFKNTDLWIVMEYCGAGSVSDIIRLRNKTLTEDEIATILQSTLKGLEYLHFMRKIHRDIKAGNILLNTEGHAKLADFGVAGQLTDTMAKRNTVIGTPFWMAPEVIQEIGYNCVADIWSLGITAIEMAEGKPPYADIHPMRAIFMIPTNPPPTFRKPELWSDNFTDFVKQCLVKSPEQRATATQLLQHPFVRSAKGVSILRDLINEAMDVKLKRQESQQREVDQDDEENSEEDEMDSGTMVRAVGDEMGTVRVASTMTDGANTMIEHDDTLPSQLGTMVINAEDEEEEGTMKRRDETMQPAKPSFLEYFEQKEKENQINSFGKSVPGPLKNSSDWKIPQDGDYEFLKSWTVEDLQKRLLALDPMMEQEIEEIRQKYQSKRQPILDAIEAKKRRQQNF

Row | Compound | IC50 (STK3; [1]) [µM] | IC50 (STK4; [2]) [µM] | IC50 (STK3) [µM] | IC50 (STK4) [µM]
1 | c1ccc(-c2c[nH]c3ncnc(N4CCOCC4)c23)cc1 [Compound 1, 4-(5-Phenyl-7H-pyrrolo[2,3-d]pyrimidin-4-yl)morpholine] | < 1 | < 1 | – | –
2 | Fc1ccccc1-c1c[nH]c2ncnc(N3CCOCC3)c12 [Compound 3, 4-(5-(2-Fluorophenyl)-7H-pyrrolo[2,3-d]pyrimidin-4-yl)morpholine] | < 1 | – | – | –
3 | COc1ccccc1-c1c[nH]c2ncnc(N3CCOCC3)c12 [Compound 4, 4-(5-(2-Methoxyphenyl)-7H-pyrrolo[2,3-d]pyrimidin-4-yl)morpholine] | < 1 | – | – | –
4 | COc1cccc(-c2c[nH]c3ncnc(N4CCOCC4)c23)c1 [Compound 8, 4-(5-(3-Methoxyphenyl)-7H-pyrrolo[2,3-d]pyrimidin-4-yl)morpholine] | < 1 | – | – | –
5 | Cc1ccc(-c2c[nH]c3ncnc(N4CCOCC4)c23)cc1 [Compound 9, 4-(5-(p-tolyl)-7H-pyrrolo[2,3-d]pyrimidin-4-yl)morpholine] | – | – | 1 to 5 | –
6 | Fc1ccc(-c2c[nH]c3ncnc(N4CCOCC4)c23)cc1 [Compound 10, 4-(5-(4-Fluorophenyl)-7H-pyrrolo[2,3-d]pyrimidin-4-yl)morpholine] | < 1 | – | – | –
7 | c1csc(-c2c[nH]c3ncnc(N4CCOCC4)c23)c1 [Compound 12, 4-(5-(Thiophen-2-yl)-7H-pyrrolo[2,3-d]pyrimidin-4-yl)morpholine] | < 1 | – | – | –
8 | c1coc(-c2c[nH]c3ncnc(N4CCOCC4)c23)c1 [Compound 13, 4-(5-(Furan-2-yl)-7H-pyrrolo[2,3-d]pyrimidin-4-yl)morpholine] | < 1 | – | – | –
9 | c1nc(N2CCOCC2)c2c(-c3ccoc3)c[nH]c2n1 [Compound 14, 4-(5-(Furan-3-yl)-7H-pyrrolo[2,3-d]pyrimidin-4-yl)morpholine] | < 1 | – | – | –
10 | CN(C)c1ncnc2[nH]cc(-c3cccc(Cl)c3)c12 [Compound 17, 5-(3-Chlorophenyl)-N,N-dimethyl-7H-pyrrolo[2,3-d]pyrimidin-4-amine] | < 1 | – | – | –
11 | Clc1cccc(-c2c[nH]c3ncnc(NCC4CC4)c23)c1 [Compound 18, 5-(3-Chlorophenyl)-N-(cyclopropylmethyl)-7H-pyrrolo[2,3-d]pyrimidin-4-amine] | < 1 | – | – | –
12 | Clc1cccc(-c2n[nH]c3ncnc(N4CCOCC4)c23)c1 [Compound 19, 4-(3-(3-chlorophenyl)-1H-pyrazolo[3,4-d]pyrimidin-4-yl)morpholine] | – | – | 1 to 5 | 1 to 5
13 | Clc1cccc(-c2csc3ncnc(N4CCOCC4)c23)c1 [Compound 20, 4-(5-(3-Chlorophenyl)thieno[2,3-d]pyrimidin-4-yl)morpholine] | > 5 | – | – | –
14 | Clc1cccc(-c2coc3ncnc(N4CCOCC4)c23)c1 [Compound 21, 5-(3-Chlorophenyl)-4-morpholinofuro[2,3-d]pyrimidine] | > 5 | – | – | –
15 | Clc1cccc(-c2c[nH]c3ccnc(N4CCOCC4)c23)c1 [Compound 22, 4-(3-(3-Chlorophenyl)-1H-pyrrolo[3,2-c]pyridin-4-yl)morpholin] | > 5 | – | – | –
16 | Clc1ccccc1-c1c[nH]c2ncnc(N3CCOCC3)c12 [Compound 24, 4-(5-(2-Chlorophenyl)-7H-pyrrolo[2,3-d]pyrimidin-4-yl)morpholine] | 1 to 5 | 1 to 5 | – | –
17 | Clc1ccc(-c2c[nH]c3ncnc(N4CCOCC4)c23)cc1 [Compound 25, 4-(5-(4-Chlorophenyl)-7H-pyrrolo[2,3-d]pyrimidin-4-yl)morpholine] | < 1 | 1 to 5 | – | –
18 | COc1ccc(-c2c[nH]c3ncnc(N4CCOCC4)c23)cc1 [Compound 26, 4-(5-(4-methoxyphenyl)-7H-pyrrolo[2,3-d]pyrimidin-4-yl)morpholine] | 1 to 5 | < 1 | – | –
19 | FC(F)(F)Oc1cccc(-c2c[nH]c3ncnc(N4CCOCC4)c23)c1 [Compound 27, 4-(5-(3-(trifluoromethoxy)phenyl)-7H-pyrrolo[2,3-d]pyrimidin-4-yl)morpholine] | 1 to 5 | 1 to 5 | – | –
20 | FC(F)(F)Oc1ccc(-c2c[nH]c3ncnc(N4CCOCC4)c23)cc1 [Compound 28, 4-(5-(4-(trifluoromethoxy)phenyl)-7H-pyrrolo[2,3-d]pyrimidin-4-yl)morpholine] | 1 to 5 | 1 to 5 | – | –
21 | CC(=O)c1ccc(-c2c[nH]c3ncnc(N4CCOCC4)c23)cc1 [Compound 29, 1-(4-(4-morpholino-7H-pyrrolo[2,3-d]pyrimidin-5-yl)phenyl)ethan-1-one] | > 5 | 1 to 5 | – | –
22 | Clc1ccc(-c2c[nH]c3ncnc(N4CCOCC4)c23)cc1Cl [Compound 30, 4-(5-(3,4-dichlorophenyl)-7H-pyrrolo[2,3-d]pyrimidin-4-yl)morpholine] | 1 to 5 | 1 to 5 | – | –

Row | Compound | IC50 (STK3; [1]) [µM] | IC50 (STK4; [2]) [µM] | IC50 (STK3) [µM] | IC50 (STK4) [µM]
23 | Clc1cc(-c2c[nH]c3ncnc(N4CCOCC4)c23)ccn1 [Compound 31, 4-(5-(2-chloropyridin-4-yl)-7H-pyrrolo[2,3-d]pyrimidin-4-yl)morpholine] | 1 to 5 | 1 to 5 | – | –
24 | Fc1cnc(Cl)cc1-c1c[nH]c2ncnc(N3CCOCC3)c12 [Compound 32, 4-(5-(2-chloro-5-fluoropyridin-4-yl)-7H-pyrrolo[2,3-d]pyrimidin-4-yl)morpholine] | > 5 | 1 to 5 | – | –
25 | Fc1c(-c2c[nH]c3ncnc(N4CCOCC4)c23)ccnc1Cl [Compound 33, 4-(5-(2-chloro-3-fluoropyridin-4-yl)-7H-pyrrolo[2,3-d]pyrimidin-4-yl)morpholine] | > 5 | > 5 | – | –
26 | Clc1ncccc1-c1c[nH]c2ncnc(N3CCOCC3)c12 [Compound 34, 4-(5-(2-chloropyridin-3-yl)-7H-pyrrolo[2,3-d]pyrimidin-4-yl)morpholine] | > 5 | > 5 | – | –
27 | c1cc(-c2c[nH]c3ncnc(N4CCOCC4)c23)ccn1 [Compound 35, 4-(5-(pyridin-4-yl)-7H-pyrrolo[2,3-d]pyrimidin-4-yl)morpholine] | > 5 | > 5 | – | –
28 | c1ncc(-c2c[nH]c3ncnc(N4CCOCC4)c23)cn1 [Compound 36, 4-(5-(pyrimidin-5-yl)-7H-pyrrolo[2,3-d]pyrimidin-4-yl)morpholine] | > 5 | > 5 | – | –
29 | Cc1cnccc1-c1c[nH]c2ncnc(N3CCOCC3)c12 [Compound 37, 4-(5-(3-methylpyridin-4-yl)-7H-pyrrolo[2,3-d]pyrimidin-4-yl)morpholine] | > 5 | > 5 | – | –
30 | COc1ncc(-c2c[nH]c3ncnc(N4CCOCC4)c23)cn1 [Compound 38, 4-(5-(2-methoxypyrimidin-5-yl)-7H-pyrrolo[2,3-d]pyrimidin-4-yl)morpholine] | > 5 | > 5 | – | –
31 | CS(=O)(=O)c1cccc(-c2c[nH]c3ncnc(N4CCOCC4)c23)c1 [Compound 39, 4-(5-(3-(methylsulfonyl)phenyl)-7H-pyrrolo[2,3-d]pyrimidin-4-yl)morpholine] | > 5 | > 5 | – | –
32 | CS(=O)(=O)c1ccc(-c2c[nH]c3ncnc(N4CCOCC4)c23)cc1 [Compound 40, 4-(5-(4-(methylsulfonyl)phenyl)-7H-pyrrolo[2,3-d]pyrimidin-4-yl)morpholine] | > 5 | > 5 | – | –
33 | Cn1cc(-c2c[nH]c3ncnc(N4CCOCC4)c23)cn1 [Compound 41, 4-(5-(1-methyl-1H-pyrazol-4-yl)-7H-pyrrolo[2,3-d]pyrimidin-4-yl)morpholine] | 1 to 5 | < 1 | – | –
34 | c1nc(N2CCOCC2)c2c(-c3cnoc3)c[nH]c2n1 [Compound 42, 4-(5-(isoxazol-4-yl)-7H-pyrrolo[2,3-d]pyrimidin-4-yl)morpholine] | 1 to 5 | < 1 | – | –
35 | Cc1noc(C)c1-c1c[nH]c2ncnc(N3CCOCC3)c12 [Compound 43, 4-(5-(3,5-dimethylisoxazol-4-yl)-7H-pyrrolo[2,3-d]pyrimidin-4-yl)morpholine] | > 5 | > 5 | – | –
36 | Clc1cccc(-c2c[nH]c3ncnc(N4CCCC4)c23)c1 [Compound 44, 5-(3-chlorophenyl)-4-(pyrrolidin-1-yl)-7H-pyrrolo[2,3-d]pyrimidine] | < 1 | < 1 | – | –
37 | CC(=O)N1CCN(c2ncnc3[nH]cc(-c4cccc(Cl)c4)c23)CC1 [Compound 45, 1-(4-(5-(3-chlorophenyl)-7H-pyrrolo[2,3-d]pyrimidin-4-yl)piperazin-1-yl)ethan-1-one] | 1 to 5 | < 1 | – | –
38 | Clc1cccc(-c2c[nH]c3ncnc(N4CCC4)c23)c1 [Compound 46, 4-(azetidin-1-yl)-5-(3-chlorophenyl)-7H-pyrrolo[2,3-d]pyrimidine] | 1 to 5 | 1 to 5 | – | –
39 | CN1CCN(c2ncnc3[nH]cc(-c4cccc(Cl)c4)c23)CC1 [Compound 47, 5-(3-chlorophenyl)-4-(4-methylpiperazin-1-yl)-7H-pyrrolo[2,3-d]pyrimidine] | 1 to 5 | 1 to 5 | – | –
40 | CCN1CCN(c2ncnc3[nH]cc(-c4cccc(Cl)c4)c23)CC1 [Compound 48, 5-(3-chlorophenyl)-4-(4-ethylpiperazin-1-yl)-7H-pyrrolo[2,3-d]pyrimidine] | > 5 | > 5 | – | –
41 | CCNc1ncnc2[nH]cc(-c3cccc(Cl)c3)c12 [Compound 49, 5-(3-chlorophenyl)-N-ethyl-7H-pyrrolo[2,3-d]pyrimidin-4-amine] | < 1 | < 1 | – | –
42 | CC1(O)CCN(c2ncnc3[nH]cc(-c4cccc(Cl)c4)c23)CC1 [Compound 103, 1-(5-(3-chlorophenyl)-7H-pyrrolo[2,3-d]pyrimidin-4-yl)-4-methylpiperidin-4-ol] | < 1 | – | – | –
43 | CCN(CCO)c1ncnc2[nH]cc(-c3cccc(Cl)c3)c12 [Compound 114, 2-((5-(3-chlorophenyl)-7H-pyrrolo[2,3-d]pyrimidin-4-yl)(ethyl)amino)ethan-1-ol] | < 1 | – | – | –
